Assay results as given in patent publication US20110306071A1, “Compositions and Methods for Identifying Substrate Specificity of Inhibitors of Gamma Secretase” (ELAN PHARMACEUTICALS, INC., priority 2007, published 2011).

Experiments:
gamma secretase = assay: Aβ production from C99GVP and mutant or chimeric substrates in transfected HEK cells (ELISA, IP/Western blot); format: cell-based, Human; conditions: for drop of Aβ40: Aβ40 ELISA, FIG. 9C; for reduction in total Aβ: IP/Western blot densitometry, FIG. 9B; for effect on secreted Aβ / Aβ production compared with C99GVP control: FIGS. 8C, 8D, 9B, 9C
Text: Plasmid Construction of JMD Chimeric Substrates: A pcDNA3.1-C99 plasmid similar to the previously described SPA4CT-LE construct (Dyrks, et al., FEBS Lett., 1992; 309: 20-24) was generated by standard PCR techniques. The APP signal peptide was fused to the N-terminus of the C99 fragment via a dipeptide leucine-glutamic acid (LE) linker. The strategy used to generate the pcDNA3.1-C99GVP construct was similar to a previously described method (Karlstrom, H., et al., J. Biol. Chem., 2002; 277: 6763-6766). (See, generally, FIG. 3). Briefly, an AscI site was introduced immediately 3′ of the nucleotides encoding the triple-lysine (K) membrane anchor of C99, where the GVP coding sequence was subsequently inserted in frame (to the C-terminal side of the lysine membrane anchor sequence of C99). […] All three chimeras were constructed by using a two-stage PCR method with two pairs of overlapping primers (for list of primers, see Table I). These chimeric substrates were characterized to assess activity as gamma secretase substrates and subsequent production and secretion of Aβ and AICD (FIGS. 6-7). […] The C99GVP-SLSS quadruple JMD chimera was also constructed with the same PCR method. Point mutations within the luminal juxtamembrane domain (i.e., C99GVP-G25S, S26L, N27S and K28S; FIGS. 2 and 9A-D) were generated using QuikChange (Stratagene) site-directed mutagenesis kit according to the manufacturer's instructions. All cDNAs were verified by sequencing. The Aβ and Aβ-like peptides generated from C99GVP and the various chimeric substrates were numbered with reference to the first N-terminal residue (Asp-1) of the Aβ peptide.
Cell Culture and Transient Transfection: Human embryonic kidney 293 (HEK 293) cells (ATCC) were grown in Dulbecco's Modified Eagle Medium with High Glucose (DMEM, obtained from Gibco/Invitrogen, Cat #11960) supplemented with 10% fetal bovine serum (Hyclone, SV 30014.03) and 50 units/ml penicillin and streptomycin (37° C., 5% CO2). Cells were used at less than passage number 30. At the time of seeding, viability of cells was greater than 95% as determined using a Vi-Cell Analyzer (Beckman-Coulter). Confluence of cells on plates was kept at greater than 95% during all phases of the experiment as determined with a standard tissue culture inverted microscope. All transfections were carried out on 5×10^6 cells in 6-well tissue culture plates (Costar). The following 3 plasmids: pG5E1B-luc, 200 ng (gift from R. Maurer, OHSU); pCMV-β-gal, 100 ng (gift from R. Maurer, OHSU); C99GVP or the various chimeric constructs, 200-400 ng were added together to each well. FuGENE6 reagent (Roche Cat. #11-814443001) was used according to manufacturer's protocol for the transient transfection of adherent cells. Transfected cells were reseeded onto 12 well (2×10^6 cells) and/or 96-well (5×10^4 cells) plates (Costar) 16 h post-transfection; fresh media was added either with or without gamma secretase inhibitors. The cells and conditioned media were harvested 48 h post-transfection for analysis.
Immunoprecipitation (IP) and Western Blot Detection of Aβ: Total Aβ peptides in conditioned medium or cell lysate were immuno-precipitated at 4° C. overnight with 4 μg of the 2H3 antibody, followed by incubation with 50 μl of a 50% protein G-Sepharose (GE Healthcare) slurry for 1 hr and three washes in the same lysis buffer as described above in the Western Blot discussion. Proteins were eluted from the solid-phase immunoprecipitates in Laemmli sample buffer by heating at 70° C. for 5 min and resolved on 10-20% Tris-Tricine SDS-PAGE or the modified Tris-Tricine/8M urea gels (Qi-Takahara, Y., et al., J Neurosci. (2005; 25, 436-445). After transferring onto nitrocellulose membranes (Invitrogen), the membranes were heated to 98° C. for 5 min in PBS, immunostained with the 2H3 antibody and visualized with Super-signal West Pico chemiluminescent substrate (Pierce). Each experiment was repeated at least three times. […]

[1] = tested on: gamma secretase (secreted Aβ40 and Aβ42); assay: Aβ sandwich ELISA of media from C99GVP or APP transfected HEK cells treated with inhibitors; format: cell-based, Human
Experimental: Inhibitor Treatment of Transfected HEK Cell: The transition state analogue gamma secretase inhibitor-L685,458 (Sigma) and the peptidomimetic inhibitor-DAPT (Dovey, H. F., et al., J Neurochem., 2001; 76:173-181) were dissolved in DMSO to make 20 mM stocks. Similarly, a number of Elan's series of sulfonamide inhibitors were prepared and used as described herein (see, also FIGS. 11-14). Inhibitors were added to cell cultures (e.g., HEK) at the indicated final concentration, and the treated cells were harvested 48 h post-transfection. The metallo-proteinase inhibitor TAPI-1 (Calbiochem) was used at a final concentration of 40 μM. The Aβ-degrading enzyme inhibitors, Bacitracin (Calbiochem) and phosphoramidon (Calbiochem) were used at final concentration of 1 mg/ml and 40 μM, respectively. All inhibitor experiments were performed in triplicate and repeated at least three times.
ELISAs used to quantify different Aβ species were performed using standard techniques as described above and in (Johnson-Wood, K., et al., Proc. Natl. Acad. Sci. U.S.A., 1997; 94: 1550-1555, incorporated by reference). The Aβ40 and Aβ42 peptides in the samples were captured onto 2G3 or 21F12 antibody coated plates, respectively, and detected with a biotinylated 2H3 antibody. The fluorescence signal generated from a streptavidin-alkaline phosphatase conjugate (Roche) was measured with a CytoFlour microplate reader (Applied Biosystems). Synthetic Aβ40 or Aβ42 peptides (Anaspec) were used to generate standard curves (FIG. 10). All measurements were done in triplicate.
Next, Aβ generation was characterized from C99GVP. Wild type HEK cells and the mock-transfection control secreted little Aβ into the conditioned media (FIG. 5D, lane 1). In contrast, transient expression of C99GVP led to robust Aβ production, as measured by IP/Western blot (FIG. 5D) and ELISAs that detect Aβ 40 and Aβ42 species, respectively ([…], top panel). […] Finally, we compared the Aβ-lowering potency of two inhibitors, using either C99GVP or the wild type APP as substrate. As determined by ELISA, the respective IC50 values for the two substrates are essentially identical (FIG. 5E).

[2] = molecular target: T1, gamma secretase cleavage of C99GVP (AICD-GVP) (Homo sapiens, UniProt P49768); assay: Luciferase reporter gene assay, AICD-GVP transactivation from C99GVP in HEK293 cells; format: cell-based; conditions: C99-GVP, FIG. 5C
T1 construct: active gamma secretase is endogenously and constitutively produced by the cell cultures; endogenous in cells; host or cells: HEK 293, co-transfected with C99GVP, pG5E1B-luc and pCMV-β-gal
Experimental: Luciferase Reporter Gene Assay: Luciferase reporter assays were carried out 48 hr post-transfection. Cells seeded on 96-well plates (BD Biosciences) were washed once with PBS and harvested in 20 μl of reporter lysis buffer (Promega) per well. After adding 100 μl of luminescent substrate (Promega), the luciferase activity was measured with a MicroLumatPlus microplate luminometer (Berthold Technologies). The β-galactosidase activity was measured similarly, using a luminescent β-galactosidase substrate (BD Biosciences). As a control for transfection efficiency and general effect on transcription, the luciferase activity was normalized by measuring β-galactosidase activity on a duplicate plate. All measurements were done in triplicate and repeated at least three times.
Luciferase Assay. After confirming AICD-GVP generation in HEK cells, its ability to transactivate a luciferase reporter gene that contains Gal4 response elements in the upstream activation sequence (UAS) was tested. […] Some residual luciferase activity remained in the presence of excess gamma secretase inhibitors, even though identical treatment completely abolished AICD production as measured by Western blot (FIG. 5B). […]

[3] = molecular target: T2, gamma secretase γ and ε cleavage of Fas-APPsw-DD (Homo sapiens, UniProt P49768); assay: Concurrent Aβ and AICD ELISA in Fas-APPsw-DD transfected 293 cells (APP γ versus ε cleavage); format: cell-based
T2 construct: active gamma secretase is endogenously and constitutively produced by the cell cultures; endogenous in cells; host or cells: HEK 293, transfected with Fas-APPsw-DD
Experimental: Polyclonal antibody AICD ELISA. HEK 293 cells were grown under standard conditions to ˜90% confluence. Cells were harvested, counted, and subsequently plated onto PDL-coated 60 mm dishes at 2×10^6 cells/dish in 5 mL media. The cells were allowed to settle onto the dishes for ˜4 hours. Transfection of various construct into cells was performed using standard techniques using Lipofectamine 2000™ (LF2K) (Invitrogen). Briefly, 2 μg plasmid DNA and 4 μL LF2K were diluted into separate 150 μL aliquots of Opti-MEM (Gibco), and allowed to stand for 10-15 minutes. The two aliquots were then mixed, and the DNA:Lipid complex allowed to form for about 20 minutes. The 300 μL DNA:Lipid complex was then added to the cells in 3 mL fresh media, and incubated overnight. In order to administer potential or known gamma secretase inhibitor compounds to cells, the transfected cells were harvested, replated into PDL-coated 24-well plates at 200,000 cells/well, and allowed to settle onto the plates for ˜4 hours. Cells were washed, and 500 μL fresh media added. […]
The term ‘non-selective’ in this instance refers to lack of selectivity for cell Aβ over Notch signaling (or GammaAPP over GammaNotch). […] The calculated γ/ε selectivity of the non-selective compounds (FIG. 11 and Table I) were 0.7, 1.1, 1.8 and 1.9 for DAPT, 44989, 46719 and the Merck compound, respectively. […]

Molecule: C99GVP-K28S: C99GVP point mutant K28S in the GSNK motif (SEQ ID NO:46) (LEDAEFRHDSGYEVHHQKLVFFAEDVGSNSGAIIGLMVGGVVIATVIVITLVML)
- drop of Aβ40 (gamma secretase; versus C99GVP): ~90%
- reduction in total Aβ (gamma secretase; versus C99GVP): ~90%

Molecule: G25S: C99GVP point mutant G25S in the GSNK motif (SEQ ID NO:43) (LEDAEFRHDSGYEVHHQKLVFFAEDVSSNKGAIIGLMVGGVVIATVIVITLVML)
- effect on secreted Aβ / Aβ production compared with C99GVP control (gamma secretase): no obvious effect

Molecule: C99GVP-APLP2*: APLP2 JMD swap chimera of C99GVP retaining the pre-TMD GSNK motif of APP (SEQ ID NO:19) (LEDAEFRHDSGLEEERESVGPLREDFGSNKGAIIGLMVGGVVIATVIVITLVML)
- effect on secreted Aβ / Aβ production compared with C99GVP control (gamma secretase): indistinguishable from the C99GVP control

Molecule: C99GVP-S26L: C99GVP point mutant S26L in the GSNK motif (SEQ ID NO:44) (LEDAEFRHDSGYEVHHQKLVFFAEDVGLNKGAIIGLMVGGVVIATVIVITLVML)
- drop of Aβ40 (gamma secretase; versus C99GVP): 52.7±2.3%
- reduction in total Aβ (gamma secretase; versus C99GVP): 65.7±8.5%

Molecule: N27S: C99GVP point mutant N27S in the GSNK motif (SEQ ID NO:45) (LEDAEFRHDSGYEVHHQKLVFFAEDVGSSKGAIIGLMVGGVVIATVIVITLVML)
- effect on secreted Aβ / Aβ production compared with C99GVP control (gamma secretase): no obvious effect

Molecule: CC(C)C[C@H](NC(=O)[C@H](Cc1ccccc1)C[C@@H](O)[C@H](Cc1ccccc1)NC(=O)OC(C)(C)C)C(=O)N[C@@H](Cc1ccccc1)C(N)=O [L-685,458]
- secreted Aβ (Aβ40 and Aβ42) ([1]; 5 μM, 24 h, FIG. 5D): block secreted Aβ
- Aβ potency (IC50) with C99GVP versus native APP substrate ([1]; FIG. 5E): equal Aβ potency
- luciferase reporter transactivation by AICD-GVP [2]: block luciferase reporter transactivation
- γ/ε selectivity = IC50 AICD/IC50 Aβ [3]: 1.9

B1: C99GVP-SLSS: C99GVP in which the GSNK motif was substituted with SLSS from APLP2 (SEQ ID NO:51) (protein)
chain: DAEFRHDSGYEVHHQKLVFFAEDVSLSSGAIIGLMVGGVVIATVIVITLVMLKKKKLLSSIEQACDICRLKKLKCSKEKPKCAKCLKNNWECRYSPKTKRSPLTRAHLTEVESRLERLEQLFLLIFPREDLDMILKMDSLQDIKALLTGLFVQDNVNKDAVTDRLASVETDMPLTLRQHRISATSSSEESSNKGQRQLTVSGIPGDLAPPTDVSLGDELHLDGEDVAMAHADALDDFDLDMLGDGDSPGPGFTPHDSAPYGALDMADFEFEQMFTDALGIDEYGGQYTSIHHGVVEVDAAVTPEERHLSKMQQNGYENPTYKFFEQMQN
- reduction in secreted Aβ (gamma secretase; versus C99GVP, FIGS. 9B and 9C): ~97%
